Laboratory results as given in publication PMC9555310, “Novel inhibitors and activity-based probes targeting serine proteases” (Frontiers in Chemistry, 2022).

Legend:
thrombin = target: T1, thrombin (Homo sapiens, UniProt P00734); experiment: Activity-based profiling of thrombin (SDS-PAGE, streptavidin-HRP western blot); format: binding; settings: pre-treatment 30 min, 37°C
T1 construct: apparent molecular mass of 31 kDa, corresponding to the heavy (catalytic) chain of the protease; purchased R&D Systems
Procedure: (§1) Samples of recombinant protease (trypsin, plasmin, thrombin, chymotrypsin, or HNE, as indicated in the relevant figure legends) were treated with each of the newly synthesized compounds at a concentration of 50 μM, for 30 min, at 37°C. A control sample (no ABP) was prepared by treating the recombinant protease with solvent vehicle (DMF) only, used to prepare the stock solution of each ABP. Samples were also pre-treated (±90°C for 30 min) before being incubated with each putative ABP. With trypsin and thrombin, further samples were prepared where Z-Arg^P-(OPh)2 or NAP559, respectively, was added 30 min prior to the addition of the ABP under examination. All treated samples were then denatured with SDS containing reducing treatment buffer (10 min at 95°C), followed by resolution by SDS-PAGE and subjected to Western blotting. Resolved proteins were then transferred onto the nitrocellulose membrane and labeled with streptavidin-HRP. The ABP–protease complex was then visualized following treatment with Luminata Forte HRP substrate.
FIGURE 8 Activity Based Profiling of Trypsin-like serine proteases. (A) trypsin was treated (±) with NAP830, for 30 min, at 37°C (± pretreatment with Z-Arg^P-(OPh)2). (B) thrombin (1 […]) was pre-treated with various concentrations of NAP559 (30 min, at 37°C) followed by treatment (±) with NAP858 for 30 min, at 37°C. (C) Plasmin was treated in turn with QUBTL1, NAP962 and NAP830, (± pre-heat inactivation at 95°C, for 10 min) for 30 min, at 37°C. […]
(§2) Following transfer, the extra protein binding sites on the membrane were blocked by addition of 3% (w/v) BSA in TBST (20 mM Tris, 137 mM NaCl, 1% (v/v) Tween 20, pH 7.6) and agitated gently at room temperature for 30 minutes. The biotin-labelled proteases were then detected by addition of Streptavidin-HRP (Vector Laboratories) in 3% (w/v) BSA in TBST at a concentration of 1:20000, for 1 hour at room temperature. […]

trypsin = target: T2, trypsin (Sus scrofa, UniProt P00761); experiment: Activity-based profiling of trypsin (SDS-PAGE, streptavidin-HRP western blot); format: binding, porcine; settings: 50 μM ABP, 30 min, 37°C; band of apparent molecular weight 23 kDa
T2 construct: purchased Sigma-Aldrich; host or cells: porcine pancreas
T2 sequence (P00761 9-231): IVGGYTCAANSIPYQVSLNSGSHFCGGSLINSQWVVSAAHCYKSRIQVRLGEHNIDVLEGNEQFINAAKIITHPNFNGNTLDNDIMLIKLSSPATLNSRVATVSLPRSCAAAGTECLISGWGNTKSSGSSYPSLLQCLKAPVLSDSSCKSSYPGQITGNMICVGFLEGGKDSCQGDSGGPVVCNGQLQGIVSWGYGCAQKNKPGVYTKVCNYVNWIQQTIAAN
Procedure: as §1, with “The ABP–protease complex was then visualized following treatment with Luminata Forte HRP substrate.” left out
as §2

Row | SMILES | effect of pre-treatment of thrombin on 31 kDa band disclosed by NAP858 (thrombin; 1 μM) | effect of pre-treatment of thrombin on 31 kDa band disclosed by NAP858 (thrombin; 10 and 50 μM) | labelling of trypsin by ABP (western blot) (trypsin)
1 | N=C(N)NCCCN(CC(=O)N1CCC[C@H]1C(=O)N(CC(N)=O)Cc1ccccc1)C(=O)ON1C(=O)CCC1=O [NAP559, Succinimidoyl-CO-NArg-D-Pro-NPhe-NH2] | slight but a discernible diminution in the intensity of the band | almost completely extinguished | 
2 | NCCCCN(CC(=O)NCC(=O)NCC(=O)NCCCOCCOCCOCCCNC(=O)CCCCC1SCC2NC(=O)NC21)C(=O)ON1C(=O)CCC1=O (stereo not drawn) [NAP830, Succinimidoyl-CO-NLys-Gly-Gly-PEG-Biotin] |  |  | enabled the active site labeling and detection of the protease
